Reference: article PMC8955020, “Pharmacokinetics of Nafamostat, a Potent Serine Protease Inhibitor, by a Novel LC-MS/MS Analysis” (Molecules, 2022)
Like-named read-outs stand apart in the source and are kept apart here.

Tests used:
[1] = design: method as in PMID 18392693; details: humans; cited from earlier work
[2] = Stability of nafamostat in rat plasma (autosampler, freeze/thaw, short-term, long-term); format: in vitro ADME; details: for Percentage over Theoretical Concentration, Long-Term Stability: 2 weeks; for Percentage over Theoretical Concentration, Freeze/Thaw Stability: 5 cycles; for Percentage over Theoretical Concentration, Autosampler Stability / Percentage over Theoretical Concentration, Short-Term Stability: 24 h; for Percentage over Theoretical Concentration, Autosampler Stability: 4 °C; for Percentage over Theoretical Concentration, Short-Term Stability: 20 °C
Experimental: The stability of the nafamostat in the rat plasma was determined under four different storage conditions. […] The stability of nafamostat and IS was examined under four different conditions using three replicates of low, medium, and high QC samples in the rat plasma. The autosampler stability was determined by analyzing the QC samples left in the autosampler at 4 °C for 24 h. The freeze–thaw stability was determined by analyzing the QC samples subject to five freeze–thaw cycles. The short-term stability was determined by analyzing the QC samples left at room temperature for 24 h. […] All stability data were expressed as the percentage of the mean response of the QC samples for stability tests vs. those of the freshly prepared samples at the same concentrations.

[3] = Pharmacokinetics of nafamostat in rats after intravenous injection and oral administration (LC-MS/MS, non-compartmental); format: in vivo; details: rat
Experimental: Therefore, nafamostat dissolved in 5% DMSO was administered by intravenous injection via penile vein at a dose of 2 mg/kg (n = 5). For oral administration, nafamostat was dissolved in two types of vehicles: (1) 10% DMSO, (2) 10% DMSO with 10% Tween 80, and orally administered at a dose of 20 mg/kg (n = 5). […] The animal study was approved by the Ethics Committee for the Treatment of Laboratory Animals at Sungkyunkwan University (SKKUIACUC2021-01-57-1) and conducted in accordance with the standard operating procedures (SOPs). Male Sprague–Dawley rats (7 weeks, 188–204 g; DBL, Eumseong, Korea) were kept in plastic cages with free access to a standard diet (Cargill Agri Purina, Seongnam, Korea) and water. The animals were maintained at a temperature of 23 ± 2 °C with a 12 h light–dark cycle and relative humidity of 50 ± 10%. Nafamostat dissolved in 5% DMSO (1 mg/mL) was administered by intravenous injection via penile vein at a dose of 2 mg/kg (n = 5). Approximately 0.3 mL of the venous blood samples were collected at 5, 10, 15, 30 min, 1, 1.5, 2, 3, 4, 6, 8, and 12 h after drug administration directly from the jugular vein. For oral administration, nafamostat was dissolved in two types of vehicle: (1) 10% DMSO, (2) 10% DMSO with 10% Tween 80. The prepared nafamostat solution in Vehicle 1 or Vehicle 2 was orally administered at a dose of 20 mg/kg (n = 5). Approximately 0.3 mL of the venous blood samples were collected at 15, 30, 45 min, 1, 1.5, 2, 3, 4, 6, 8, and 12 h after drug administration directly from the jugular vein. Plasma samples were obtained by centrifugation of the blood samples at 15,000× g for 5 min. Finally, 150 μL of the plasma samples were mixed with 3 μL of the 5.5 mol/L HCl and stored at −20 °C until analysis. The plasma nafamostat concentration–time data were analyzed by a non-compartmental method using the nonlinear least-squares regression program, Phoenix WinNonlin (Version 6.4, Certara, L.P., Princeton, NJ, USA).

[4] = Effect of pH on stability of nafamostat in plasma under different storage conditions; format: in vitro ADME, rat; details: 160 ng/mL in plasma
Experimental: Nafamostat in the biological fluid is highly unstable because it is rapidly hydrolyzed by erythrocytes in the blood, as well as by arylesterase in the plasma. Quick plasma preparation is one of the general stabilization strategies for unstable compounds in the biological matrices. Therefore, to prevent the hydrolysis of nafamostat by erythrocytes after acquiring the blood samples, the centrifugation time of the blood samples was shortened from 10 to 5 min. In addition, the stability of nafamostat was examined by modulating the pH of plasma samples to determine the optimal pH to minimize the enzymatic hydrolysis. […] Nafamostat concentrations were also determined under various storage conditions, i.e., (A) immediately, (B) after 24 h left at room temperature, (C) after being subjected to five freeze–thaw cycles, and (D) after 10 days at −20 °C. […] Accordingly, once plasma samples were collected, 3 µL of 5.5 mol/L HCl was added to 150 µL of the collected plasma samples to keep the plasma samples in 0.35% HCl (pH = 1.2).

[5] = male, Sprague-Dawley, plasma, iv, 2 mg/kg, IV injection 2 mg/kg in 5% DMSO
[6] = male, Sprague-Dawley, plasma, po, 20 mg/kg, oral 20 mg/kg, vehicle 1: 10% DMSO
[7] = male, Sprague-Dawley, plasma, po, 20 mg/kg, oral 20 mg/kg, vehicle 2: 10% DMSO + 10% Tween 80
[8] = IV injection 2 mg/kg in 5% DMSO

**Q.** Which results are given for `N=C(N)c1ccc2cc(OC(=O)c3ccc(N=C(N)N)cc3)ccc2c1` [nafamostat, 6′-amidino-2-naphthyl 4-guanidinobenzoate]?
**A.** t1/2(β) [1]: 1.87 to 2.13 h; Percentage over Theoretical Concentration, Long-Term Stability ([2]; 2 ng/mL): 97.25 ± 4.73%; Percentage over Theoretical Concentration, Freeze/Thaw Stability ([2]; 2 ng/mL): 99.02 ± 3.61%; Percentage over Theoretical Concentration, Autosampler Stability ([2]; 2 ng/mL): 97.2 ± 4.98%; Percentage over Theoretical Concentration, Short-Term Stability ([2]; 2 ng/mL): 96.57 ± 2.66%; Percentage over Theoretical Concentration, Long-Term Stability ([2]; 80 ng/mL): 99.38 ± 0.49%; Percentage over Theoretical Concentration, Freeze/Thaw Stability ([2]; 80 ng/mL): 100.40 ± 0.20%; Percentage over Theoretical Concentration, Autosampler Stability ([2]; 80 ng/mL): 101.31 ± 2.00%; Percentage over Theoretical Concentration, Short-Term Stability ([2]; 80 ng/mL): 101.11 ± 1.95%; Percentage over Theoretical Concentration, Long-Term Stability ([2]; 160 ng/mL): 96.62 ± 1.63%; Percentage over Theoretical Concentration, Freeze/Thaw Stability ([2]; 160 ng/mL): 98.44 ± 0.58%; Percentage over Theoretical Concentration, Autosampler Stability ([2]; 160 ng/mL): 97.45 ± 0.31%; Percentage over Theoretical Concentration, Short-Term Stability ([2]; 160 ng/mL): 97.64 ± 2.18%; Vd ([3]; male, Sprague-Dawley, plasma, IV injection 2 mg/kg in 5% DMSO, read-out: Vss): 0.99 ± 0.65 L/kg; CL/F ([3]; male, Sprague-Dawley, plasma, oral 20 mg/kg, vehicle 2: 10% DMSO + 10% Tween 80, read-out: CL or CL/F): 319 ± 119 L/h/kg; AUC(0-inf) [3, 5]: 447 ± 35.9 ng·h/mL; half-life [3, 5]: 1.39 h; Cmax ([3]; male, Sprague-Dawley, plasma, iv, 2 mg/kg, IV injection 2 mg/kg in 5% DMSO, plasma, read-out: C0 or Cmax): 5290 ± 808 ng/mL; AUC(0-inf) [3, 6]: 42.4 ± 12.5 ng·h/mL; Tmax [3, 6]: 0.45 ± 0.21 h; bioavailability [3, 6]: 0.95 ± 0.25%; half-life [3, 6]: 2.21 ± 1.3 h; Cmax ([3]; male, Sprague-Dawley, plasma, po, 20 mg/kg, oral 20 mg/kg, vehicle 1: 10% DMSO, read-out: C0 or Cmax): 27.8 ± 8.17 ng/mL; AUC(0-inf) [3, 7]: 71.2 ± 29.9 ng·h/mL; Tmax [3, 7]: 1 ± 0.53 h; bioavailability [3, 7]: 1.59 ± 0.6%; half-life [3, 7]: 2.3 ± 1.11 h; Cmax ([3]; male, Sprague-Dawley, plasma, po, 20 mg/kg, oral 20 mg/kg, vehicle 2: 10% DMSO + 10% Tween 80, read-out: C0 or Cmax): 33.2 ± 18.8 ng/mL; CL or CL/F [3, 8]: 4.495 ± 0.367 L/h/kg; Vz or Vz/F [3, 8]: 8.75 ± 3.80 L/kg; t1/2 ([3]; IV injection 2 mg/kg in 5% DMSO, plasma, 2 mg/kg): 1.34 ± 0.51 h; Vz or Vz/F ([3]; oral 20 mg/kg, vehicle 1: 10% DMSO): 1906.08 ± 1841.14 L/kg; Vz or Vz/F ([3]; oral 20 mg/kg, vehicle 2: 10% DMSO + 10% Tween 80): 998.85 ± 401.04 L/kg; time to reach peak concentration (Cmax) ([3]; oral administration 20 mg/kg, both vehicles): ≤ 1.0 h; stability (observed vs theoretical concentration) ([4]; 0.1% ammonium hydroxide (pH = 10.5), A: immediately): 29.29 ± 1.26%; stability (observed vs theoretical concentration) ([4]; 0.1% ammonium hydroxide (pH = 10.5), B: after 24 h at room temperature): 0.09 ± 0.01%; stability (observed vs theoretical concentration) ([4]; 0.1% ammonium hydroxide (pH = 10.5), C: after 5 freeze-thaw cycles): 5.21 ± 0.32%; stability (observed vs theoretical concentration) ([4]; 0.1% ammonium hydroxide (pH = 10.5), D: after 10 days at −20 °C): 0.13 ± 0.08%; stability (observed vs theoretical concentration) ([4]; 0.1% formic acid (pH = 2.8), A: immediately): 66.56 ± 3.73%; stability (observed vs theoretical concentration) ([4]; 0.1% formic acid (pH = 2.8), B: after 24 h at room temperature): 0.16 ± 0.05%; stability (observed vs theoretical concentration) ([4]; 0.1% formic acid (pH = 2.8), C: after 5 freeze-thaw cycles): 48.25 ± 2.26%; stability (observed vs theoretical concentration) ([4]; 0.1% formic acid (pH = 2.8), D: after 10 days at −20 °C): 0.12 ± 0.07%; stability (observed vs theoretical concentration) ([4]; 0.35% HCl (pH = 1.2), A: immediately): 103.67 ± 0.60%; stability (observed vs theoretical concentration) ([4]; 0.35% HCl (pH = 1.2), B: after 24 h at room temperature): 104.42 ± 2.50%; stability (observed vs theoretical concentration) ([4]; 0.35% HCl (pH = 1.2), C: after 5 freeze-thaw cycles): 103.12 ± 2.19%; stability (observed vs theoretical concentration) ([4]; 0.35% HCl (pH = 1.2), D: after 10 days at −20 °C): 107.15 ± 0.69%; stability (observed vs theoretical concentration) ([4]; 1.0% formic acid (pH = 2.2), A: immediately): 97.66 ± 6.58%; stability (observed vs theoretical concentration) ([4]; 1.0% formic acid (pH = 2.2), B: after 24 h at room temperature): 100.05 ± 1.83%; stability (observed vs theoretical concentration) ([4]; 1.0% formic acid (pH = 2.2), C: after 5 freeze-thaw cycles): 101.86 ± 1.51%; stability (observed vs theoretical concentration) ([4]; 1.0% formic acid (pH = 2.2), D: after 10 days at −20 °C): 105.67 ± 0.59%; stability (observed vs theoretical concentration) ([4]; saline (pH = 5.5), A: immediately): 63.47 ± 2.32%; stability (observed vs theoretical concentration) ([4]; saline (pH = 5.5), B: after 24 h at room temperature): 0.13 ± 0.03%; stability (observed vs theoretical concentration) ([4]; saline (pH = 5.5), C: after 5 freeze-thaw cycles): 19.01 ± 1.61%; stability (observed vs theoretical concentration) ([4]; saline (pH = 5.5), D: after 10 days at −20 °C): 9.93 ± 1.76%
